In patent US9376391B2, “Difluoromethyl-nicotinic-tetrahydronaphthyl carboxamides as fungicides” (BAYER CROPSCIENCE AKTIENGESELLSCHAFT, priority 2012, dated 2016):

Columns and labels:
[1] = tested on: Sphaerotheca fuliginea; assay: In vivo preventive test on Sphaerotheca fuliginea (powdery mildew on cucurbits); settings: preventive spray, gherkin plants, grading 12 days after contamination
How it was run: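 Gherkin plants at Z11 cotyledon stage were sprayed with compound in acetone/tween/DMSO/water. After 24 h they were inoculated with S. fuliginea spores (100 000 spores per ml) and incubated at about 20° C and 70-80% RH. Percent efficacy versus solvent-treated controls was scored 12 days post-inoculation.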

[2] = tested on: Phakopsora pachyrhizi; assay: Phakopsora test (soybeans)/preventive; assay type: in vivo; settings: evaluated 7 days after inoculation
Protocol: Phakopsora Test (Soybeans)/Preventive
To produce a suitable preparation of active compound, 1 part by weight of active compound is mixed with the stated amounts of solvent and emulsifier, and the concentrate is diluted with water to the desired concentration.
To test for preventive activity, young plants are sprayed with the preparation of active compound at the stated rate of application. After the spray coating has dried on, the plants are inoculated with an aqueous spore suspension of the causal agent of soybean rust (Phakopsora pachyrhizi) and stay for 24 h without light in an incubation cabinet at approximately 24° C. and a relative atmospheric humidity of 95%.
The plants remain in the incubation cabinet at approximately 24° C. and a relative atmospheric humidity of approximately 80% and a day/night interval of 12 h.
The test is evaluated 7 days after the inoculation. 0% means an efficacy which corresponds to that of the untreated control, while an efficacy of 100% means that no disease is observed.

[3] = tested on: Uromyces appendiculatus; assay: In vivo preventive test on Uromyces appendiculatus (bean rust); settings: preventive spray, bean plants, grading 11 days after contamination
How it was run: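 'Saxa' bean plants at the 2-leaf stage were sprayed with compound and inoculated 24 h later with U. appendiculatus spores (150 000 spores per ml). Plants were incubated 24 h at 20 °C and 100% RH, then 10 days at 20 °C and 70–80% RH. Percent efficacy versus solvent-treated controls was graded 11 days post-inoculation.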

[4] = tested on: Alternaria brassicae; assay: In vivo preventive test on Alternaria brassicae (leaf spot on radish); settings: spray, graded 6 days after contamination vs control plants
Protocol: In Vivo Preventive Test on Alternaria brassicae (Leaf Spot on Radish)
(§1) The active ingredients tested are prepared by homogenization in a mixture of acetone/tween/DMSO, and then diluted with water to obtain the desired active material concentration.
Radish plants (“Pernod Clair” variety), sown in starter cups on a 50/50 peat soil-pozzolana substrate and grown at 17° C., are treated at the cotyledon stage by spraying with the active ingredient prepared as described above. Plants, used as controls, are treated with the mixture of acetone/tween/DMSO/water not containing the active material.
After 24 hours, the plants are contaminated by spraying the cotyledons with an aqueous suspension of Alternaria brassicae spores (50 000 spores per ml). The spores are collected from a 15-day-old culture. The contaminated radish plants are incubated at 20° C. and at 100% relative humidity.
Grading (% of efficacy) is carried out 6 days after the contamination, in comparison with the control plants.

[5] = log P by HPLC on reversed phase columns (EEC directive 79/831 Annex V.A8); assay type: physicochemical; settings: Table 1, formula (I); HPLC/LC-MS at pH 2.7, 0.1% formic acid in water / acetonitrile, gradient 10% to 95%
[6] = tested on: Botrytis cinerea; assay: In vivo preventive test on Botrytis cinerea (grey mould), gherkin plants; settings: gherkin, spray, graded 4 to 5 days after contamination vs control plants
Protocol: In Vivo Preventive Test on Botrytis cinerea (Grey Mould)
The active ingredients tested are prepared by homogenization in a mixture of acetone/tween/DMSO and then diluted with water to obtain the desired active material concentration.
Gherkin plants (“Vert petit de Paris” variety), sown in starter cups on a 50/50 peat soil-pozzolana substrate and grown at 24° C., are treated at the Z11 cotyledon stage by spraying with the active ingredient prepared as described above. Plants, used as controls, are treated with the mixture of acetone/tween/DMSO/water not containing the active material.
After 24 hours, the plants are contaminated by spraying the cotyledons with an aqueous suspension of cryopreserved Botrytis cinerea spores (50 000 spores per ml). The spores are suspended in a nutrient solution composed of 10 g/L of PDB, 50 g/L of D-Fructose, 2 g/L of NH4NO3 and 1 g/L of KH2PO4. The contaminated gherkin plants are incubated at 17° C. and at 90% relative humidity.
Grading (% of efficacy) is carried out 4 to 5 days after the contamination, in comparison with the control plants.

[7] = tested on: Puccinia recondita; assay: In vivo preventive test on Puccinia recondita (brown rust on wheat); settings: wheat, spray, graded 12 days after contamination vs control plants
How it was run: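 Wheat seedlings ("Scipion") sprayed with compound at the 1-leaf stage, inoculated 24 h later with Puccinia recondita spores (100 000 spores per ml). Incubated 24 h at 20° C and 100% RH, then 10 days at 20° C and 70-80% RH. Efficacy (%) versus solvent-treated controls graded 12 days after contamination.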

[8] = tested on: Pyrenophora teres; assay: In vivo preventive test on Pyrenophora teres (net blotch on barley); settings: barley, spray, graded 14 days after contamination vs control plants
Protocol: In Vivo Preventive Test on Pyrenophora teres (Net Blotch on Barley)
as §1
Barley plants (“Plaisant” variety), sown in starter cups on a 50/50 peat soil-pozzolana substrate and grown at 22° C., are treated at the 1-leaf stage (10 cm height) by spraying with the active ingredient prepared as described above. Plants, used as controls, are treated with the mixture of acetone/tween/DMSO/water not containing the active material.
After 24 hours, the plants are contaminated by spraying the leaves with an aqueous suspension of Pyrenophora teres spores (12 000 spores per ml). The spores are collected from a 12-day-old culture. The contaminated barley plants are incubated for 48 hours at 20° C. and at 100% relative humidity, and then for 12 days at 20° C. at 70-80% relative humidity.
Grading (% of efficacy) is carried out 14 days after the contamination, in comparison with the control plants. plants.

[9] = tested on: Septoria tritici; assay: In vivo preventive test on Septoria tritici (leaf spot on wheat); settings: 500 ppm, preventive spray, wheat plants, grading 24 days after contamination
Protocol: In Vivo Preventive Test on Septoria tritici (Leaf Spot on Wheat)
as §1
Wheat plants (“Scipion” variety), sown in starter cups on a 50/50 peat soil-pozzolana substrate and grown at 22° C., are treated at the 1-leaf stage (10 cm height) by spraying with the active ingredient prepared as described above. Plants, used as controls, are treated with the mixture of acetone/tween/DMSO/water not containing the active material.
After 24 hours, the plants are contaminated by spraying the leaves with an aqueous suspension of cryopreserved Septoria tritici spores (500 000 spores per ml). The contaminated wheat plants are incubated for 72 hours at 18° C. and at 100% relative humidity, and then for 21 days at 90% relative humidity.
Grading (% of efficacy) is carried out 24 days after the contamination, in comparison with the control plants.

logP^[a] [5]	Compound	Eff. % ([1]; 100 ppm) [%]	Eff. % ([2]; 10 ppm of active ingredient) [%]	Eff. % ([3]; 100 ppm) [%]	Eff. % ([4]; dose 100 ppm) [%]	Eff. % ([6]; dose 100 ppm) [%]	Eff. % ([7]; dose 100 ppm) [%]	Eff. % ([1]; 500 ppm) [%]	Eff. % ([2]; 100 ppm of active ingredient) [%]	Eff. % ([8]; dose 500 ppm) [%]	Eff. % ([3]; 500 ppm) [%]	Eff. % [9] [%]	Eff. % ([7]; dose 500 ppm) [%]	Eff. % ([4]; dose 500 ppm) [%]	Eff. % ([8]; dose 100 ppm) [%]	Eff. % ([6]; dose 500 ppm) [%]
3.64^[a]	CCC1(C)CC(C)c2c(NC(=O)c3cccnc3C(F)F)cccc21 (mixture of isomers) [Example 81]	94	100	99	70	100	100									
3.74^[a]	CC1CC(C)(C)c2cccc(NC(=S)c3cccnc3C(F)F)c21 (racemic) [Example 9]							100	99	86	100	98	100			
3.78^[a]	CCC1Cc2c(NC(=O)c3cccnc3C(F)F)cccc2C1(C)C (racemic) [Example 37]		95					100			100	97	100	96		
4.11^[a]	CC(C)C1Cc2c(NC(=O)c3cccnc3C(F)F)cccc2C1(C)C (racemic) [Example 43]		98					100			100	86	98	100		
3.23^[a]	CCC1OC(CC)(CC)c2cccc(NC(=O)c3cccnc3C(F)F)c21 (racemic) [Example 71]	100	94	100	88		98								92	
3.65^[a]	CC1CC(C(C)C)c2cccc(NC(=O)c3cccnc3C(F)F)c21 (stereo not shown) [Example 3]							95	100	83	100	90	97	86		
3.25^[a]	CC1CC(C)(C)c2cccc(NC(=O)c3cccnc3C(F)F)c21 (stereo not shown) [Example 13]							100	99	100	100	83	100	93		
3.33^[a]	CC1Cc2c(NC(=O)c3cccnc3C(F)F)cccc2C1(C)C (stereo not shown) [Example 14]		100					98		92	100	97	100			
4.39^[a]	CC1CC(CC(C)(C)C)c2cccc(NC(=O)c3cccnc3C(F)F)c21 (stereo not shown) [Example 46]		90					100			100	71	98	98		83
4.15^[a]	CC(C)CC1CC(C)c2c(NC(=O)c3cccnc3C(F)F)cccc21 (stereo not shown) [Example 57]		93					98		97	100		98	97		
